Test results: patent publication US7074789B2, “Kinase inhibitors” (Amgen Inc., priority 1999, dated 2006)

Key:
Type in all cases: biochemical
[1] = biological target: T1, Itk (Homo sapiens, UniProt Q08881); experiment: Kinase inhibition assay (33P transfer), Itk; conditions: read-out: Itk-1
T1 construct: Kinases are expressed as either kinase domains or full length constructs; made in house
T1 sequence (Q08881 1-620): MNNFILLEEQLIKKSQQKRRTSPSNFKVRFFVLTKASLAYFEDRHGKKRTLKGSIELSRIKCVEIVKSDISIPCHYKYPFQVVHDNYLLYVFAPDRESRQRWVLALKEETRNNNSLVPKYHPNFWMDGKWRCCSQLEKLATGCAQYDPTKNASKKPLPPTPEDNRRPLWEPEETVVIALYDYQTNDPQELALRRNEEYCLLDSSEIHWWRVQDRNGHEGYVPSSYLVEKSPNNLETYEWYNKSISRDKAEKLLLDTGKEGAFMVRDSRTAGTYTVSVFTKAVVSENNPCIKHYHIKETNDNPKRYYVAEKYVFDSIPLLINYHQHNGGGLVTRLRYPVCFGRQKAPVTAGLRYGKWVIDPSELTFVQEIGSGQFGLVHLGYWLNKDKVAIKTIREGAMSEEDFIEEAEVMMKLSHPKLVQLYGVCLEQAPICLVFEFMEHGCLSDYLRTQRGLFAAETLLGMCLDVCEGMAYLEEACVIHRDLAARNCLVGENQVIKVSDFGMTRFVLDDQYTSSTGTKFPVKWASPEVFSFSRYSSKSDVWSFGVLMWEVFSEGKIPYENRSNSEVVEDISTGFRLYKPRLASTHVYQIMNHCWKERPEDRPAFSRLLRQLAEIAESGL
Procedure, shortened: (§1)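 GST/His-fusion kinases, E. coli or High Five expressed, affinity purified; 33P-ATP, plate-coated poly(Glu,Tyr) 4:1 or poly(Arg,Ser) 3:1; 0.5% H3PO4 wash, scintillant, LSC.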

[2] = biological target: T2, IGFR-1 (Homo sapiens, UniProt P08069); experiment: Kinase inhibition assay, IGFR-1 (Table 2); conditions: Table 2, kinase inhibition class
T2 construct: Kinases are expressed as either kinase domains or full length constructs; made in house

[3] = biological target: T3, EGFR (Homo sapiens, UniProt P00533); experiment: Kinase inhibition assay (33P transfer), EGFR; conditions: Table 2, kinase inhibition class; read-out: EGFR-1
T3 construct: Kinases are expressed as either kinase domains or full length constructs; made in house
Procedure, shortened: as §1

[4] = biological target: T4, c-Met (Homo sapiens, UniProt P08581); experiment: Kinase inhibition assay (33P transfer), c-Met; conditions: Table 2, kinase inhibition class; read-out: Met-1
T4 construct: Kinases are expressed as either kinase domains or full length constructs; made in house
Procedure, shortened: as §1

[5] = biological target: T5, Lck (Homo sapiens, UniProt P06239); experiment: Kinase inhibition assay (33P transfer), Lck; conditions: read-out: Lck-1
T5 construct: Kinases are expressed as either kinase domains or full length constructs; made in house
Procedure, shortened: (§2)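 Recombinant kinase-domain or full-length fusion proteins (GST or His tag) served as enzyme. Substrate poly(Glu,Tyr) 4:1 or poly(Arg,Ser) 3:1 was bound to the plate; transferred 33P was read by liquid scintillation following acid washing.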

[6] = biological target: T6, Kdr (Homo sapiens, UniProt P35968); experiment: Kinase inhibition assay (33P transfer), Kdr; conditions: read-out: KDR-1
T6 construct: Kinases are expressed as either kinase domains or full length constructs; made in house
Procedure, shortened: as §2

[7] = biological target: T7, Zap-70 (Homo sapiens, UniProt P43403); experiment: Kinase inhibition assay (33P transfer), Zap-70; conditions: read-out: Zap-1
T7 construct: Kinases are expressed as either kinase domains or full length constructs; made in house
T7 sequence (P43403 1-619): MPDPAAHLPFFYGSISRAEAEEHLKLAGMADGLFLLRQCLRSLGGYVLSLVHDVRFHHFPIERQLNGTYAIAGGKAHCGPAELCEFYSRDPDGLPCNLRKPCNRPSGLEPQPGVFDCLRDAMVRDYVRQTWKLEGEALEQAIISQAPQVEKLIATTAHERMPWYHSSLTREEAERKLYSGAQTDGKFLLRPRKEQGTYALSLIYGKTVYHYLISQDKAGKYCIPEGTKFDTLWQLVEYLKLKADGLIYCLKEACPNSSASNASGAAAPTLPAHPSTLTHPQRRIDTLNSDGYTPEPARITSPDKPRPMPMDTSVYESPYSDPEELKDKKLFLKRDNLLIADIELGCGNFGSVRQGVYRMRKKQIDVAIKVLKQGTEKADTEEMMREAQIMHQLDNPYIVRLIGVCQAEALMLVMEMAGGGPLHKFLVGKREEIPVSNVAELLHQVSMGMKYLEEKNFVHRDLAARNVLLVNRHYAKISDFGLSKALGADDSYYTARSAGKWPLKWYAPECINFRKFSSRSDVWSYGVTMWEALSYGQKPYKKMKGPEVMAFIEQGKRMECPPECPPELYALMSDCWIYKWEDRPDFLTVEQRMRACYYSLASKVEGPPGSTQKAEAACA
Procedure, shortened: as §2

[8] = biological target: T8, AKT (Homo sapiens, UniProt Q9Y243); experiment: Kinase inhibition assay (33P transfer), AKT; conditions: Table 2, kinase inhibition class; read-out: AKT3-1
T8 construct: Kinases are expressed as either kinase domains or full length constructs; made in house
Procedure, shortened: as §2

[9] = biological target: T9, ErbB2 (Homo sapiens, UniProt P04626); experiment: Kinase inhibition assay (33P transfer), ErbB2; conditions: read-out: ErbB2-2
T9 construct: Kinases are expressed as either kinase domains or full length constructs; made in house
Procedure, shortened: as §1

[10] = biological target: T10, PDGFRB (Homo sapiens, UniProt P09619); experiment: Kinase inhibition assay (33P transfer), PDGFRB; conditions: read-out: PDGFRB-1
T10 construct: Kinases are expressed as either kinase domains or full length constructs; made in house
T10 sequence (P09619 33-1106, species assumed): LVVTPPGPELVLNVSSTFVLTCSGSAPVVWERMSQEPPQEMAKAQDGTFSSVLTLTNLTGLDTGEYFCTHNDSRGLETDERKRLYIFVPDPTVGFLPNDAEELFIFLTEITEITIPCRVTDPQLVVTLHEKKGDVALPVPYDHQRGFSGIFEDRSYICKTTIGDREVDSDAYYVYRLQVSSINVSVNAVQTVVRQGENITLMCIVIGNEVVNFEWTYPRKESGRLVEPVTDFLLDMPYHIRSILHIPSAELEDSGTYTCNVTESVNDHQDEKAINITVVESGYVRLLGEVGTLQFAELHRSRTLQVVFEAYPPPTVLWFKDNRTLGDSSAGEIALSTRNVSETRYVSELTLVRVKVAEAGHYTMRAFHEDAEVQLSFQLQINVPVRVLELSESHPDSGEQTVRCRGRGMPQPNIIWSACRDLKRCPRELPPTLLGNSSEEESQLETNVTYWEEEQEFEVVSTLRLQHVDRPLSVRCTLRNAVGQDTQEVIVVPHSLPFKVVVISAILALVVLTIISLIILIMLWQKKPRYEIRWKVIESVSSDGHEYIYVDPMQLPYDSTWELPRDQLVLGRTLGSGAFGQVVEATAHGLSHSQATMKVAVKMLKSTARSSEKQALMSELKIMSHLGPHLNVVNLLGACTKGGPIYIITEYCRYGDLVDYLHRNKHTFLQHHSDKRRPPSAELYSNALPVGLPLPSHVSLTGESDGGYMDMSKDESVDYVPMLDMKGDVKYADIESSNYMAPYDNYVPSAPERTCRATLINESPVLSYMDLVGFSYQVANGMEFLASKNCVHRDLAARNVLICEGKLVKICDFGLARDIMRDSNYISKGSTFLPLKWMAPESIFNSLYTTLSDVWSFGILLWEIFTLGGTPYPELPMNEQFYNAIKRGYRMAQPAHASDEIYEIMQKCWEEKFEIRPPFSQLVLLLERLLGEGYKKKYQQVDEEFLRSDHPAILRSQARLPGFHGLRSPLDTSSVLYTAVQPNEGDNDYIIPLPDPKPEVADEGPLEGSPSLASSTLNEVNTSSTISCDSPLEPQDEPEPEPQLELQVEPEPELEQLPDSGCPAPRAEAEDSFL

T6 sequence (P35968 20-1356, species assumed): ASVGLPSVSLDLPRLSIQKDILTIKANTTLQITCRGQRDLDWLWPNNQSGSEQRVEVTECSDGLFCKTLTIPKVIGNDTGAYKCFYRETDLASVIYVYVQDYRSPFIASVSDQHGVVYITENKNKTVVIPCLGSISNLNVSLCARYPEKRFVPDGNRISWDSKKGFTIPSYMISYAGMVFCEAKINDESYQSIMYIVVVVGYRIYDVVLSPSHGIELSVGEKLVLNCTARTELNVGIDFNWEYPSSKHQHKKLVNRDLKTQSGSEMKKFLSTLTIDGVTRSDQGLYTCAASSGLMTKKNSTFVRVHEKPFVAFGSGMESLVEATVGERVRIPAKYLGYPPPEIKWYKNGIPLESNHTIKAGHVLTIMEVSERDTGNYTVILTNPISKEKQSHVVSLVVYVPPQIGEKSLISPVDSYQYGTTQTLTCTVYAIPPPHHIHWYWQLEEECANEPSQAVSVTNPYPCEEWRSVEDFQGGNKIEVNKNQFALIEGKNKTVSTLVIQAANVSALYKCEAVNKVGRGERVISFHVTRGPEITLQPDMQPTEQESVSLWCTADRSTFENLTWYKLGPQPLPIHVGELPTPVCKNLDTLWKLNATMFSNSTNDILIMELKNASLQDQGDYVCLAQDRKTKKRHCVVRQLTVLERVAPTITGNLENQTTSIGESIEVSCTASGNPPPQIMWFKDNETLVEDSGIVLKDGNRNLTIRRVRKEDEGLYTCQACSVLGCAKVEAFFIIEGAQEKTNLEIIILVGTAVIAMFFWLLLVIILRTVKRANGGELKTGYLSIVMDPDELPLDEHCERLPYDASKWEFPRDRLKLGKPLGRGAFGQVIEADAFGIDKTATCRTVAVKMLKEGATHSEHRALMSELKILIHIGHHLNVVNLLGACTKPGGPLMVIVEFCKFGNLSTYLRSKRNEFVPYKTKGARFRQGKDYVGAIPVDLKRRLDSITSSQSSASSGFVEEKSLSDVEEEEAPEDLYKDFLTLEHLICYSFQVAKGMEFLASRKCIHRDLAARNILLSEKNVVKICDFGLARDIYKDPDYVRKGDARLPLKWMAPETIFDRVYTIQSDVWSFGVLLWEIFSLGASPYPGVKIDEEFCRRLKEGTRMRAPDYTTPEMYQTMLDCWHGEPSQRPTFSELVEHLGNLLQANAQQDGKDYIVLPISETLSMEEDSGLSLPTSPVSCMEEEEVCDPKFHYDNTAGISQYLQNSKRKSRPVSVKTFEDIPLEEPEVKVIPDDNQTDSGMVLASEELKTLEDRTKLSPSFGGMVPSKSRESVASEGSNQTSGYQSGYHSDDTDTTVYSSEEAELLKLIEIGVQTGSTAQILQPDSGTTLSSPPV
T4 sequence (P08581 25-1390): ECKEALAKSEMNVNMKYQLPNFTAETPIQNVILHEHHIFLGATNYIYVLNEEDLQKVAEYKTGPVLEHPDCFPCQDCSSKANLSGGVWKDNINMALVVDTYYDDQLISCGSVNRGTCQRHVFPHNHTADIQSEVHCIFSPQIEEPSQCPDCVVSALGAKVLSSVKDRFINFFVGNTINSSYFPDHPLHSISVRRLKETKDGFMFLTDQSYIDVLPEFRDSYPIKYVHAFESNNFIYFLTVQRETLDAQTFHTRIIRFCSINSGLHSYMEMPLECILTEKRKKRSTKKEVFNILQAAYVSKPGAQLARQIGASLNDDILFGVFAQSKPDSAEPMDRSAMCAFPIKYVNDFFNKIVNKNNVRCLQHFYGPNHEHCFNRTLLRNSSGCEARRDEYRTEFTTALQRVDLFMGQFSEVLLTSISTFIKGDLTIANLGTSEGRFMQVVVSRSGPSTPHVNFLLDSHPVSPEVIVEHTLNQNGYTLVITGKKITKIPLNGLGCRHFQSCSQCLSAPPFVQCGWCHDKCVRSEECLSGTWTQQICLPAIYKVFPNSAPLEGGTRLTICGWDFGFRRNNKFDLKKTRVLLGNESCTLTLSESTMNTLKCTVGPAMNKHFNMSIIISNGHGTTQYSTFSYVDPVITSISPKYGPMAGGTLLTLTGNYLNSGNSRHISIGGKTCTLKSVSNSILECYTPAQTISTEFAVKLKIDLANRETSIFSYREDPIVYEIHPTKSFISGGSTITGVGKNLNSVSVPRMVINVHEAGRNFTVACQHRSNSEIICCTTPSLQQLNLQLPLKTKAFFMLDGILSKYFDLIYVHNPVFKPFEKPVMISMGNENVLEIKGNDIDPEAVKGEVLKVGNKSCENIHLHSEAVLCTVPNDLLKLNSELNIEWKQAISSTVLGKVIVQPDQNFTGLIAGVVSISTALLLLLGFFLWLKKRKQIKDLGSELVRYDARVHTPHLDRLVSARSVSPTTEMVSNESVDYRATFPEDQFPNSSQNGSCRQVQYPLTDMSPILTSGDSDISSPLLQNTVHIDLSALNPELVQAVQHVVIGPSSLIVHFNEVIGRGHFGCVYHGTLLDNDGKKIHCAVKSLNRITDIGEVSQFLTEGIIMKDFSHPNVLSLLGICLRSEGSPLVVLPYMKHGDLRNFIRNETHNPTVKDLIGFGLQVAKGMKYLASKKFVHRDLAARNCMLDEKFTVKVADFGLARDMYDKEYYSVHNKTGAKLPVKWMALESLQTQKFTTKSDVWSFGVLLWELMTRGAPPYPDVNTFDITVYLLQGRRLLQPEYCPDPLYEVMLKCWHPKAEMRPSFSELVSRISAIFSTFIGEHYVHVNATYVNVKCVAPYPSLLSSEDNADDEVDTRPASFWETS
T9 sequence (P04626 23-1255, species assumed): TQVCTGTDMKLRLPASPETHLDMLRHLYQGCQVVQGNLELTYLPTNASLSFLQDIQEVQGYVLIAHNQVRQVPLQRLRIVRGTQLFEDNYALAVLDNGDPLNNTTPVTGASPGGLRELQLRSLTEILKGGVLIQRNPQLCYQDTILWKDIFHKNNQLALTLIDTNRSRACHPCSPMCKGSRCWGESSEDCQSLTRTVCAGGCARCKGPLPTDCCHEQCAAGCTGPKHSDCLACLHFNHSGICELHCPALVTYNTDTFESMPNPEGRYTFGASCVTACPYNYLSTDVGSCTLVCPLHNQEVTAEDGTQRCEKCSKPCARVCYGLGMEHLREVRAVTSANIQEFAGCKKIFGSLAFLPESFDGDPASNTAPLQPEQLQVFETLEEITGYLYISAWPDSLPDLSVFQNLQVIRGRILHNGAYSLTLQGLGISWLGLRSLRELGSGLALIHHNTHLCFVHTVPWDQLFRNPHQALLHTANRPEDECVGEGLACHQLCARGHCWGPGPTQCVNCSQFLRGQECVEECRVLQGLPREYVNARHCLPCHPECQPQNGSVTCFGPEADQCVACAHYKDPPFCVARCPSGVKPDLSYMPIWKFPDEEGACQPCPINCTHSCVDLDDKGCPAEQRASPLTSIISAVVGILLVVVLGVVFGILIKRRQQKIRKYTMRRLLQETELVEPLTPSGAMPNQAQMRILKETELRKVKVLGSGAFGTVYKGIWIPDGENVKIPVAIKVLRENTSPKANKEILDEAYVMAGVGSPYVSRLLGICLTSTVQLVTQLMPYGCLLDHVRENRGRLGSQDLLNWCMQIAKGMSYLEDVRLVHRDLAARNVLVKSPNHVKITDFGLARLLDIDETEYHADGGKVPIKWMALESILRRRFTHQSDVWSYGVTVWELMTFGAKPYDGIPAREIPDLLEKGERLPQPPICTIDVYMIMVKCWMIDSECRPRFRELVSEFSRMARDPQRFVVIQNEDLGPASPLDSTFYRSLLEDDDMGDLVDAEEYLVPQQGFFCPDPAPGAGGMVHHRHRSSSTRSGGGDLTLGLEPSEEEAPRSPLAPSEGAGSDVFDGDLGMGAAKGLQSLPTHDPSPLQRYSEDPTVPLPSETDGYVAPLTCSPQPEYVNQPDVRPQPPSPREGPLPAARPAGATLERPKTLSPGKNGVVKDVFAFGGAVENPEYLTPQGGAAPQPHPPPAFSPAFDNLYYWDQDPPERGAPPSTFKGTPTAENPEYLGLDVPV

IC50 [1] [µM]	IC50 [2] [µM]	IC50 [3] [µM]	IC50 [4] [µM]	IC50 [5] [µM]	IC50 [6] [µM]	IC50 [7] [µM]	IC50 [8] [µM]	IC50 [9] [µM]	IC50 [10] [µM]	Compound
> 13	> 13	> 13	> 13	> 13	> 13	> 13	> 13	> 13	> 13	COc1ccc(Nc2ncnc(NCCCOC(C)C)n2)cc1OC [Compound 785]
> 11.6	> 11.6	> 11.6	> 11.6	> 11.6	> 11.6	> 11.6	> 11.6	> 11.6	> 11.6	COc1ccc(Nc2ncnc(NCCCN3CCN(C)CC3)n2)cc1OC [Compound 786]
> 15	> 15	> 15	> 15	> 15	> 15	> 15	> 15	> 15	> 15	COc1ccc(Nc2ncnc(NCCC#N)n2)cc1OC [Compound 787]
> 14.1	> 14.1	> 14.1	> 14.1	> 14.1	> 14.1	> 14.1	> 14.1	> 14.1	11 to 14.1	CCC(O)CNc1ncnc(Nc2ccc(OC)c(OC)c2)n1 (centres unmarked) [Compound 788]
> 13.6	> 13.6	> 13.6	> 13.6	> 13.6	> 13.6	> 13.6	> 13.6	1.21 to 7.24	10.6 to 13.6	COc1ccc(Nc2ncnc(NC[C@@H]3CCCO3)n2)cc1OC [Compound 790]
> 11.7	> 11.7	> 11.7	> 11.7	> 11.7	> 11.7	> 11.7	> 11.7	6.22 to 9.07	> 11.7	COc1ccc(Nc2ncnc(NCc3c(C)cccc3Cl)n2)cc1OC [Compound 791]
> 8.95	0.796 to 4.78	> 8.95	4.78 to 6.96	6.96 to 8.95	> 8.95	> 8.95	> 8.95	> 8.95	> 8.95	C=CCNC(=O)c1ccc(-c2cc(Nc3ncnc(Nc4cc(OC)c(OC)c(OC)c4)n3)[nH]n2)cc1 [Compound 1005]
> 8.59	6.68 to 8.59	6.68 to 8.59	> 8.59	4.58 to 6.68	0.764 to 4.58	> 8.59	> 8.59	0.764 to 4.58	4.58 to 6.68	COc1cc(Nc2ncnc(-n3c(NC4CCCc5ccccc54)nc4ccccc43)n2)cc(OC)c1OC (centres unmarked) [Compound 1043]

The remaining lines, values behind:

Compound	IC50 [1] [µM]	IC50 [2] [µM]	IC50 [3] [µM]	IC50 [4] [µM]	IC50 [5] [µM]	IC50 [6] [µM]	IC50 [7] [µM]	IC50 [8] [µM]	IC50 [9] [µM]	IC50 [10] [µM]
NC(=O)Cc1cccc(Nc2ncnc(-n3c(N)nc4ccccc43)n2)c1 [Compound 955]	1.11 to 6.66	< 1.11	> 12.5	1.11 to 6.66	1.11 to 6.66	< 1.11	> 12.5	> 12.5	1.11 to 6.66	1.11 to 6.66
Nc1nc2ccccc2n1-c1ncnc(Nc2cccc(CC(=O)NCc3ccccn3)c2)n1 [Compound 956]	0.886 to 5.32	< 0.886	> 9.97	7.75 to 9.97	5.32 to 7.75	< 0.886	> 9.97	> 9.97	> 9.97	5.32 to 7.75
c1ccc(CNc2nc3ccccc3n2-c2ncnc(Nc3cccc(Cc4nnn[nH]4)c3)n2)cc1 [Compound 957]	0.841 to 5.05	0.841 to 5.05	< 0.841	0.841 to 5.05	0.841 to 5.05	< 0.841	5.05 to 7.36	0.841 to 5.05	< 0.841	< 0.841
c1ccc(CNc2nc3ccccc3n2-c2ncnc(Nc3cccc(Cc4nnn[nH]4)c3)n2)nc1 [Compound 958]	0.839 to 5.04	0.839 to 5.04	0.839 to 5.04	0.839 to 5.04	0.839 to 5.04	< 0.839	5.04 to 7.35	5.04 to 7.35	0.839 to 5.04	0.839 to 5.04
COc1ccc(CNc2nc3ccccc3n2-c2ncnc(Nc3cccc(Cc4nnn[nH]4)c3)n2)cc1 [Compound 959]	0.791 to 4.75	0.791 to 4.75	0.791 to 4.75	0.791 to 4.75	0.791 to 4.75	< 0.791	0.791 to 4.75	0.791 to 4.75	4.75 to 6.92	0.791 to 4.75
COC(=O)c1ccc(-c2cc(Nc3ncnc(Nc4ccc(CO)cc4)n3)[nH]n2)cc1 [Compound 989]	8.38 to 10.8	8.38 to 10.8	0.958 to 5.75	8.38 to 10.8	> 10.8	8.38 to 10.8	> 10.8	> 10.8	> 10.8	> 10.8
COC(=O)c1ccc(-c2cc(Nc3ncnc(Nc4cccc(C(N)=O)c4)n3)[nH]n2)cc1 [Compound 990]	5.58 to 8.13	0.929 to 5.58	> 10.5	5.58 to 8.13	> 10.5	> 10.5	> 10.5	> 10.5	> 10.5	> 10.5
COc1cc(Nc2ncnc(Nc3cc(-c4ccc(C(=O)NCCc5ccccc5)cc4)n[nH]3)n2)cc(OC)c1OC [Compound 1006]	4.24 to 6.18	< 0.706	> 7.94	< 0.706	0.706 to 4.24	> 7.94	> 7.94	> 7.94	4.24 to 6.18	> 7.94
CC(C)(C)c1cc(Nc2ncnc(Nc3cccc(Cl)c3)n2)[nH]n1 [Compound 1007]	1.16 to 6.98	< 1.16	< 1.16	1.16 to 6.98	1.16 to 6.98	1.16 to 6.98	> 13.1	> 13.1	1.16 to 6.98	> 13.1
Clc1cccc(Nc2ncnc(Nc3cc(-c4ccccc4)n[nH]3)n2)c1 [Compound 1009]	1.1 to 6.6	< 1.1	< 1.1	> 12.4	> 12.4	> 12.4	> 12.4	> 12.4	> 12.4	9.62 to 12.4
COc1cccc(Nc2ncnc(Nc3cc(-c4ccccc4)n[nH]3)n2)c1 [Compound 1011]	1.11 to 6.68	< 1.11	1.11 to 6.68	1.11 to 6.68	1.11 to 6.68	1.11 to 6.68	> 12.5	1.11 to 6.68	1.11 to 6.68	1.11 to 6.68
Cc1cccc(Nc2ncnc(Nc3cc(-c4ccccc4)n[nH]3)n2)c1 [Compound 1012]	1.16 to 6.99	< 1.16	< 1.16	1.16 to 6.99	1.16 to 6.99	1.16 to 6.99	10.2 to 13.1	1.16 to 6.99	6.99 to 10.2	1.16 to 6.99
